Among the data in patent US20220033397A1, “PHARMACEUTICAL COMPOUNDS AND THEIR USE AS INHIBITORS OF UBIQUITIN SPECIFIC PROTEASE 19 (USP19)” (ALMAC DISCOVERY LIMITED, priority 2018, published 2022) are IC50 values, retold here.

For the assay, the target named is T1, Full-length USP19 (Homo sapiens, UniProt O94966).
T1 construct: Full-length USP19 was purchased from Boston Biochem (E-576); purchased Boston Biochem E-576
T1 sequence (O94966 1-1318): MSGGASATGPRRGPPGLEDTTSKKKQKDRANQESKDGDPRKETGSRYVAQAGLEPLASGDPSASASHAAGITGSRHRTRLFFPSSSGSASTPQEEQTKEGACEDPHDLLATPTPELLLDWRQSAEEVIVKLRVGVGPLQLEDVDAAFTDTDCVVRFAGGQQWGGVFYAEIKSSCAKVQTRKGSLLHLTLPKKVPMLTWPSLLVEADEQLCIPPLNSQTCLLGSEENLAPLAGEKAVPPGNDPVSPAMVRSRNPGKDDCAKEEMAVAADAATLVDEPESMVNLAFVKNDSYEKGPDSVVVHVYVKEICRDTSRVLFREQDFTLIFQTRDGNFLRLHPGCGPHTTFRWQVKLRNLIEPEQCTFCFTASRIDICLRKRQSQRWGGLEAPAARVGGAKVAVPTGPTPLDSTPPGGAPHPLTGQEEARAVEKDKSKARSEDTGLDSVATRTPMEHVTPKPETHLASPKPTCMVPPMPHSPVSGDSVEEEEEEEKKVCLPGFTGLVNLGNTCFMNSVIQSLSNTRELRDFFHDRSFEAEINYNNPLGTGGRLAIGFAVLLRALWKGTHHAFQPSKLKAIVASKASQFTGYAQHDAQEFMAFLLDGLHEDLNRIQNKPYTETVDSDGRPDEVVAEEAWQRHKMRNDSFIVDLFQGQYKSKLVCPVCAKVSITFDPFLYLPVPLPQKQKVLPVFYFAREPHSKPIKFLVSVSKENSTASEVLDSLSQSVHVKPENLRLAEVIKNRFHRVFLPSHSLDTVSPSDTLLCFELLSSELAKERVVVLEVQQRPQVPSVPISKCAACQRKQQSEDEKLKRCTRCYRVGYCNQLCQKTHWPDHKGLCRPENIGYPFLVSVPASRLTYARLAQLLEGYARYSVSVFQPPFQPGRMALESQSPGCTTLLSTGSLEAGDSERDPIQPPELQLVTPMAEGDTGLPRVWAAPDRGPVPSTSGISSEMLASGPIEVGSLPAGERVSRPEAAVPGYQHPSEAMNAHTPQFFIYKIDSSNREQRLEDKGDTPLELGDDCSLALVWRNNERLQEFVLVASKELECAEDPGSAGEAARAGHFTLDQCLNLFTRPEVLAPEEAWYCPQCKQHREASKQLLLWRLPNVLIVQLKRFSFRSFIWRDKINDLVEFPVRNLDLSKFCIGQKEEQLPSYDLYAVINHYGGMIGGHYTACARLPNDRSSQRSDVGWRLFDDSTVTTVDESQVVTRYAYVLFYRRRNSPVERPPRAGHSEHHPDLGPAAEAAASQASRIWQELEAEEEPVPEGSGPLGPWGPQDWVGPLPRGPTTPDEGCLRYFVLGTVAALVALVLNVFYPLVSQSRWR
Description: USP19 fluorescence polarisation (FP) homogeneous assay with Ubiquitin-Lys-TAMRA substrate. The following applies: 2.5 nM USP19, 30 min pre-incubation, average of at least two duplicate experiments. Type of assay: biochemical. Put shortly:
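Full-length USP19 preincubated 30 min at RT with inhibitor (200 μM to 2 μM series, 8–18 points) before adding 500 nM Ubiquitin-Lys-TAMRA substrate.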

Regarding `O=C(N1CCC(O)(Cn2cnc(-c3ccccc3)cc2=O)C2(CCCC2)C1)N1CCOCC1C(F)(F)F` (stereo not shown) [Example 263, 3-((10-Hydroxy-7-(3-(trifluoromethyl)morpholine-4-carbonyl)-7-azaspiro[4.5]decan-10-yl)methyl)-6-phenylpyrimidin-4(3H)-one], the IC50 lay within 5 to 50 µM.

On to `O=C(N1CC[C@@](O)(Cn2cnc(N3CCC(F)(F)C3)cc2=O)C2(CCCC2)C1)N1CCNC[C@H]1c1ccccc1` [Example 359, 6-(3,3-Difluoro-pyrrolidin-1-yl)-3-(((S)-10-hydroxy-7-((R)-2-phenylpiperazine-1-carbonyl)-7-aza-spiro[4.5]decan-10-yl)methyl)pyrimidin-4(3H)-one], for which the IC50 is less than 0.5 µM.

As for `CC1(C)CCC(N2CCN(CC3(O)CCN(C(=O)NCc4ccccc4)CC34CCCC4)C(=O)C2)CC1` (stereo not shown) [Example 115, N-Benzyl-10-((4-(4,4-dimethylcyclohexyl)-2-oxopiperazin-1-yl)methyl)-10-hydroxy-7-azaspiro[4.5]decane-7-carboxamide], the IC50 was 0.5 to 5 µM.

On to `O=C(N1CCC(O)(Cn2ncc(-c3ccccc3)cc2=O)C2(CCCC2)C1)N1CCOC[C@H]1c1ccccc1` (stereo partly drawn) [Example 280, 2-((10-Hydroxy-7-((R)-3-phenylmorpholine-4-carbonyl)-7-azaspiro[4.5]decan-10-yl)methyl)-5-phenylpyridazin-3(2H)-one], for which the IC50 was less than 0.5 µM.

In the case of `C[C@H](CC1CCCCC1)C(=O)N1CCC(O)(Cn2cc(Br)ncc2=O)C2(CCCC2)C1` (stereo partly drawn) [Example 7, 5-Bromo-1-((7-((R)-3-cyclohexyl-2-methylpropanoyl)-10-hydroxy-7-azaspiro[4.5]decan-10-yl)methyl)pyrazin-2(1H)-one], the IC50 is less than 0.5 µM.

With `C[C@H](CC1CCCCC1)C(=O)N1CCC(O)(Cn2cc(N=S(C)(C)=O)c(Cl)cc2=O)C2(CCCC2)C1` (stereo partly drawn) [Example 69, 4-Chloro-1-((7-((R)-3-cyclohexyl-2-methylpropanoyl)-10-hydroxy-7-azaspiro[4.5]decan-10-yl)methyl)-5-((dimethyl(oxo)-λ^6-sulfaneylidene)amino)pyridin-2(1H)-one], the IC50 was 0.5 to 5 µM.

Consider `C[C@H](CC1CCCCC1)C(=O)N1CCC(O)(Cn2cc(Cl)ncc2=O)C2(CCCC2)C1` (stereo partly drawn) [Example 6, 5-Chloro-1-((7-((R)-3-cyclohexyl-2-methylpropanoyl)-10-hydroxy-7-azaspiro[4.5]decan-10-yl)methyl)pyrazin-2(1H)-one], for which the IC50 is less than 0.5 µM.

Regarding `CC1CC(=O)N(CC2(O)CCN(C(=O)[C@H](C)CC(F)(F)F)CC23CCCC3)CC(C)C1` (stereo partly drawn) [Example 99, 1-((10-Hydroxy-7-((R)-4,4,4-trifluoro-2-methylbutanoyl)-7-azaspiro[4.5]decan-10-yl)methyl)-4,6-dimethylazepan-2-one], the IC50 was 5 to 50 µM.

Consider `C[C@H](CC1CCCCC1)C(=O)N1CCC(O)(Cn2ccc3ncncc3c2=O)C2(CCCC2)C1` (stereo partly drawn) [Example 158, 6-((7-((R)-3-Cyclohexyl-2-methylpropanoyl)-10-hydroxy-7-azaspiro[4.5]decan-10-yl)methyl)pyrido[4,3-d]pyrimidin-5(6H)-one], for which the IC50 lay within 0.5 to 5 µM.

On to `CS(C)(=O)=Nc1cn(CC2(O)CCN(C(=O)N3CCNC[C@H]3c3ccccc3)CC23CCCC3)c(=O)cc1-c1ccccc1` (stereo partly drawn) [Example 191, 5-((Dimethyl(oxo)-λ^6-sulfaneylidene)amino)-1-((10-hydroxy-7-((R)-2-phenylpiperazine-1-carbonyl)-7-azaspiro[4.5]decan-10-yl)methyl)-4-phenylpyridin-2(1H)-one], for which the IC50 is less than 0.5 µM.

As to `Cn1cc(-c2cc(=O)n(C[C@]3(O)CCN(C(=O)N4CCOC[C@H]4c4ccc(F)cc4)CC34CCCC4)cn2)cn1` [Example 285, 3-(((S)-7-((R)-3-(4-Fluorophenyl)morpholine-4-carbonyl)-10-hydroxy-7-azaspiro[4.5]decan-10-yl)methyl)-6-(1-methyl-1H-pyrazol-4-yl)pyrimidin-4(3H)-one], the IC50 was less than 0.5 µM.

In the case of `C[C@H](CC1CCCCC1)C(=O)N1CCC(O)(CN2C(=O)COc3cccnc32)C2(CCCC2)C1` (stereo partly drawn) [Example 35, 4-((7-((R)-3-Cyclohexyl-2-methylpropanoyl)-10-hydroxy-7-azaspiro[4.5]decan-10-yl)methyl)-2H-pyrido[3,2-b][1,4]oxazin-3(4H)-one], the IC50 was in the range of 0.5 to 5 µM.

Consider `O=C(NCC1=CCCOC1)N1CCC(O)(Cn2cnc(-c3ccccc3)cc2=O)C2(CCCC2)C1` (stereo not shown) [Example 259, N-((5,6-Dihydro-2H-pyran-3-yl)methyl)-10-hydroxy-10-((6-oxo-4-phenylpyrimidin-1(6H)-yl)methyl)-7-azaspiro[4.5]decane-7-carboxamide], for which the IC50 fell in the range of 5 to 50 µM.

As for `COc1ccc(C2CNCCN2C(=O)N2CCC(O)(Cn3cnc(-c4ccccc4)cc3=O)C3(CCCC3)C2)cc1` (stereo not shown) [Example 273, 3-((10-Hydroxy-7-(2-(4-methoxyphenyl)piperazine-1-carbonyl)-7-azaspiro[4.5]decan-10-yl)methyl)-6-phenylpyrimidin-4(3H)-one], the IC50 is 5 to 50 µM.

On to `C[C@H](CC1CCCCC1)C(=O)N1CCC(O)(Cn2cc(C(=O)O)ncc2=O)C2(CCCC2)C1` (stereo partly drawn) [Example 9, 4-((7-((R)-3-Cyclohexyl-2-methylpropanoyl)-10-hydroxy-7-azaspiro[4.5]decan-10-yl)methyl)-5-oxo-4,5-dihydropyrazine-2-carboxylic acid], for which the IC50 was in the range of 0.5 to 5 µM.

Regarding `O=C(NCC1(F)CC1)N1CC[C@@](O)(Cn2cnc(-c3ccccc3)cc2=O)C2(CCCC2)C1` [Example 311, (S)—N-((1-Fluorocyclopropyl)methyl)-10-hydroxy-10-((6-oxo-4-phenylpyrimidin-1(6H)-yl)methyl)-7-azaspiro[4.5]decane-7-carboxamide], the IC50 lay within 0.5 to 5 µM.

Regarding `Cn1c2ncncc2c(=O)n1CC1(O)CCN(C(=O)N2CCNC[C@H]2c2ccccc2)CC12CCCC2` (stereo partly drawn) [Example 175, 2-((10-Hydroxy-7-((R)-2-phenylpiperazine-1-carbonyl)-7-azaspiro[4.5]decan-10-yl)methyl)-1-methyl-1,2-dihydro-3H-pyrazolo[3,4-d]pyrimidin-3-one], the IC50 was 5 to 50 µM.

In the case of `C[C@H](CC1CCCCC1)C(=O)N1CCC(O)(Cn2cnc3cc(F)c(F)cc3c2=O)C2(CCCC2)C1` (stereo partly drawn) [Example 151, 3-((7-((R)-3-Cyclohexyl-2-methylpropanoyl)-10-hydroxy-7-azaspiro[4.5]decan-10-yl)methyl)-6,7-difluoroquinazolin-4(3H)-one], the IC50 was less than 0.5 µM.

Take `C[C@H](CC1CCCCC1)C(=O)N1CCC(O)(Cn2cnc3ccccc3c2=O)C2(CCCC2)C1` (stereo partly drawn) [Example 128, 3-((7-((R)-3-Cyclohexyl-2-methylpropanoyl)-10-hydroxy-7-azaspiro[4.5]decan-10-yl)methyl)quinazolin-4(3H)-one]: the IC50 fell in the range of 0.5 to 5 µM.

With `C[C@H](CC1CCCCC1)C(=O)N1CCC(O)(Cn2cc(N=S(C)(C)=O)c(-c3ccccc3)cc2=O)C2(CCCC2)C1` (stereo partly drawn) [Example 72, 1-((7-((R)-3-Cyclohexyl-2-methylpropanoyl)-10-hydroxy-7-azaspiro[4.5]decan-10-yl)methyl)-5-((dimethyl(oxo)-λ^6-sulfaneylidene)amino)-4-phenylpyridin-2(1H)-one], the IC50 was less than 0.5 µM.

For `C[C@H](CC1CCCCC1)C(=O)N1CCC(O)(CN2CCOCC2=O)C2(CCCC2)C1` (stereo partly drawn) [Example 31, 4-((7-((R)-3-Cyclohexyl-2-methylpropanoyl)-10-hydroxy-7-azaspiro[4.5]decan-10-yl)methyl)morpholin-3-one], the IC50 is less than 0.5 µM.

Turning to `O=C(N1CC[C@@](O)(Cn2cnc(-c3ccccc3)cc2=O)C2(CCCC2)C1)N1CCNCC1c1ccc(F)c(F)c1` (stereo partly drawn) [Example 379, 3-(((10S)-7-(2-(3,4-Difluorophenyl)piper-azine-1-carbonyl)-10-hydroxy-7-azaspiro[4.5]decan-10-yl)methyl)-6-phenylpyrimidin-4(3H)-one], the IC50 is less than 0.5 µM.
